Like-named read-outs stand apart in the source and are kept apart here.
B1: KFE5 (Ac-FKFEF-Am) (peptide)
peptide: Ac-FKFEF-NH2
notes: designed amphipathic pentapeptide, truncated variant of KFE8; also called KFE5(H); source: synthetic peptide (Fmoc-SPPS on Rink Amide resin, HPLC purified)
B2: KFE8 (Ac-FKFEFKFE-Am) (peptide)
peptide: Ac-FKFEFKFE-NH2
notes: designed amphipathic octapeptide; also called double repeat of FKFE

Columns and labels:
[1] = Gelation, rheology (G′, G″) and viscosity of peptide solutions; format: physicochemical; settings: for Gel Formation: 5 mM peptide concentration, in deionized water; for viscosity (in words): 5 mM peptide solutions, shear rate 100 s^-1, n = 4
Method: An ARES 2000ex rotational rheometer (TA Instruments, New Castle, DE) was used to evaluate the viscosity and viscoelastic properties of the peptides. Peptides were freshly solubilized in deionized water at 5 mM and allowed to incubate for 10 min to allow for complete solubilization. Next, 170 µL of each peptide solution was pipetted directly onto the rheometer stage. A 20 mm parallel plate geometry was lowered to a gap of 200 µm. Storage modulus (G′) and loss modulus (G″) were measured as a function of strain amplitude of 0.05–50% at an angular frequency of 10 rad/s to determine the linear viscoelastic region. Next, G′ and G″ were measured as a function of angular frequency (1–10 rad/s) at a strain of 1%. […] Separately, a Hagen‐Poiseuille viscometer (microVISC, Rheosense, San Ramon, CA) was used at a shear rate of 1000 s^−1 to validate measured viscosity trends.

[2] = Thioflavin T (ThT) fluorescence assay of fibrils; format: physicochemical; settings: 50 µM peptide, ThT 10 µM, ex 440 nm / em 485 nm, n = 4
Method: For ThT assays, 50 µM fibrillated peptide solutions (diluted in UPW from fibrillated peptide solutions as stated above) were mixed with 20 µM ThT solution, and fluorescence was monitored at 485 nm upon excitation at 440 nm in a 96‐well plate using a Synergy HT plate reader (Biotek, USA). The OVA‐conjugated peptide fibrils were used to assess long‐term stability over a 7‐day period.

[3] = system: mouse bone-marrow dendritic cells (DCs); assay: Cytokine and chemokine release from BMDC cultures treated with nanofibers; format: cell-based; settings: BMDCs treated with peptide nanofibers 10 μM for 24 h, supernatant analysed
Method: The femurs and tibiae of mice of C57BL/6 mice were flushed, and single‐cell suspensions were prepared, following removal of red blood cells (RBCs) using lysis buffer (Invitrogen, USA). After washing twice using HBSS (Hanks balanced salt solution), cells were differentiated for 7–9 days in complete Roswell Park Memorial Institute (RPMI) 1640 media containing heat‐inactivated Fetal bovine serum (FBS) (10%), β‐mercaptoethanol (55 µM), sodium pyruvate (1 mM), 10 mM 4‐hydroxyethylpiperazine ethane sulfonic acid (HEPES), 1× MEM (Minimum Essential Medium) non‐essential amino acids, 20 ng/mL granulocyte‐macrophage colony‐stimulating factor (GM‐CSF), 5 ng/mL IL‐4 and 100 µg/mL Penicillin‐Streptomycin (pen‐strep) in 150 mm dish (25 mL/dish) in an incubator at standard conditions (37°C and 5% CO2). Cells were harvested using gentle washing with MEM media between days 7–9 for experiments.
[picture] Figure S16. Cytokines and chemokines production in mouse bone-marrow dendritic cells (DCs) treated with peptide nanofibers (10 μM) for 24 h.

[4] = Negative-stain TEM of self-assembled peptide fibrils (width, length, morphology); format: physicochemical; settings: for self-assembly / fibril morphology (in words): in water, identical preparation conditions; for fibril width: assembled in water, 10 µM on grid, n = 200 measurements from 30 fibrils
Method: Peptide solutions (10 µM; diluted in UPW from fibrillated peptide solutions as stated above) were applied directly to 200‐mesh, carbon‐coated copper grids for 2 min and stained with 1% uranyl formate for 1 min. Excess stain and the peptide solution were blotted using filter paper, and grids were washed thrice with UPW. Darkfield images were acquired on a JEOL (Akishima, Japan) JEM‐2100F Field‐Emission STEM microscope at an accelerating voltage of 120 kV.
Individual fibers were selected for measurement, avoiding aggregates. The width of each fiber was measured using the line tool by drawing a line across the fiber's width at an angle approximately perpendicular (90°) to its orientation to ensure accuracy. Similar measurements were done to calculate the length of the fibrils. The start and end points of the line were determined based on the contrast between the fiber and the surrounding background. […]

[5] = Small-angle X-ray scattering (SAXS) of peptide assemblies; format: physicochemical; settings: 4 mg/mL in deionized water (CN 2 mg/mL), 10°C, Debye‐Bueche fit 0.015–0.10 Å^−1
Method: SAXS data of the KFE5 X‐phenyl substituted peptide solutions were collected using a Rigaku (Woodlands, TX) BioSAXS‐1000 camera on an FRE^++ X‐ray generator with an ASC‐96 Automated Sample Changer held at 10°C. A matching buffer was collected for each sample. The detector was calibrated using a silver behenate powder sample, following the manufacturer's recommended procedure. The SAXS samples (KFE5 and its variants) were prepared by dissolving […] of lyophilized peptide in 400 µL of deionized water to produce a final concentration of 4 mg/mL. The samples were then vortexed, and precipitants were removed by centrifugation at […] for 5 min. Although the samples formed gels, these remained fluid under hydrostatic pressure, permitting pipetting by the ASC‐96 liquid handling system. The cyano variant of KFE5 was an exception. It remained a gel at 4 mg/mL and needed to be diluted to 2 mg/mL to be pipetted or flowed in the ASC‐96 liquid sample handling system. Processing was performed in SAXSLab (Rigaku) and SAXNS‐ES (https://xray.utmb.edu/SAXNS). Analyses were performed in Primus/GNOM [81], BIFT [82, 83], and gnuplot (http://www.gnuplot.info).

[6] = comparison values for longer KFE peptides; ref [14], [37]; cited from earlier work
Source text: All the KFE5 peptide SAXS curves fit simple shape models of long polydisperse rods plus smaller globular components (Figure 5A). The characteristics of these rods, extracted from fitting to a Guinier‐plate model, are almost identical with an average rod or tape thickness estimated at 31.9(1) Å (Figure 5B). This is similar to our previously measured values for KFE8 and KFE12 [14, 37]. This thickness, which includes contributions from the solvent layer, matches the β‐sheet sandwich model. This appears to be a common feature of the KFE peptides that is not disrupted by the modification of the ...

[7] = molecular target: the molecule itself; assay: negative-stain TEM; peptide solutions 10 µM, diluted in ultrapure water from fibrillated 1 mM stocks, on carbon-coated copper grids, 1% uranyl formate

| Molecule | Gel Formation [1] | viscosity (in words) [1] | self-assembly / fibril morphology (in words) [4] | fibril width [4] | binding result [7] | also measured |
| --- | --- | --- | --- | --- | --- | --- |
| Ac-YKYEY-NH2 [KFE5(OH)] | No | lowest viscosities | complete ablation |  |  | storage modulus G′, fold lower than parent peptide ([1]; 5 mM peptide, strain 1%, angular frequency 10 rad/s, n = 3): approximately 2.5 fold; ThT fluorescence intensity (in words) [2]: lowest and comparable to ThT alone; cytokine and chemokine release profile (in words) [3]: release of MIP‐1α and MIP‐1β without TNF‐α secretion |
| Ac-FKFEF-NH2 [KFE5, Ac‐FKFEF‐Am] | No | highest viscosity among the non‐gelling derivatives | broader tape‐like structures | 50–100 nm |  | gel inhomogeneity‐correlation length (ζ) [5]: about 58 Å |
| CC(=O)N[C@@H](Cc1ccccc1)C(=O)N[C@@H](CCCCN)C(=O)N[C@@H](Cc1ccccc1)C(=O)N[C@@H](CCC(=O)O)C(=O)N[C@@H](Cc1ccccc1)C(=O)N[C@@H](CCCCN)C(=O)N[C@@H](Cc1ccccc1)C(=O)N[C@@H](CCC(=O)O)C(N)=O [KFE8, reference compound] |  |  | thin nanofibrils | 8–10 nm |  | gel inhomogeneity‐correlation length (ζ) [6]: 25 Å |
| B1 |  |  |  |  | binds |  |
| B2 |  |  |  |  | binds |  |

— publication PMC13042944, “Substituent‐Based Modulation of Self‐Assembly and Immunogenicity of Amphipathic Peptides” (Advanced Science, 2026)
